According to patent US20120302607A1, “C4-SUBSTITUTED ALPHA-KETO OXAZOLES” (The Scripps Research Institute, priority 2008, published 2012):
Where two headings read alike, the source gives them in different places.

What was measured:
[1] = biological target: T1, truncated rat FAAH (rFAAH) (Rattus norvegicus, UniProt P97612); test: Rat FAAH inhibition enzyme assay (14C-oleamide hydrolysis, Dixon plot); type: biochemical
T1 construct: The truncated rat FAAH (rFAAH) was expressed in E. coli and purified as described by Patricelli et al; made in house; host or cells: E. coli
T1 sequence (P97612 30-579 limits assumed): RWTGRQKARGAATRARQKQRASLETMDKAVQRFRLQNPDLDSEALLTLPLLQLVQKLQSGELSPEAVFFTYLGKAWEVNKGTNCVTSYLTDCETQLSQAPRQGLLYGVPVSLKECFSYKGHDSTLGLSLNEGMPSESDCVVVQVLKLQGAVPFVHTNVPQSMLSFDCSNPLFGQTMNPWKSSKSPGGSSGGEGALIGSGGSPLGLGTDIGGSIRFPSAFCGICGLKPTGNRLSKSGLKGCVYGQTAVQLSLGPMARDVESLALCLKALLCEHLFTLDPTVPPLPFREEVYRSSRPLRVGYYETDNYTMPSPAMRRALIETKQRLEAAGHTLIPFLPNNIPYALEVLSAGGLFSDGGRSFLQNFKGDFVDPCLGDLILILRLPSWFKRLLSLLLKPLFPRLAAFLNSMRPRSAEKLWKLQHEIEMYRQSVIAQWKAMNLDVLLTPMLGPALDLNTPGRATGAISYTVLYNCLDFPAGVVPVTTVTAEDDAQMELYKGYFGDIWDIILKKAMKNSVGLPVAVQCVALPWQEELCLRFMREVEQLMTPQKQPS
Procedure: The purified recombinant rFAAH was used in the inhibition assays unless otherwise indicated.
The ^14C-labeled oleamide (substrate) and oleic acid (product) were extracted with EtOAc and analyzed by TLC. The Ki of the inhibitor was calculated using a Dixon plot (standard deviations are provided in the Supporting Information tables).

[2] = system: triacylglycerol hydrolase (TGH); test: Proteome-wide serine hydrolase selectivity screening, TGH; type: biochemical, human; conditions: value in parentheses; FAAH versus TGH
[3] = biological target: T2, triacylglycerol hydrolase (TGH) (UniProt Q8VCT4); test: as above; type: biochemical, human; conditions: selectivity screening
T2 sequence (Q8VCT4 1-565): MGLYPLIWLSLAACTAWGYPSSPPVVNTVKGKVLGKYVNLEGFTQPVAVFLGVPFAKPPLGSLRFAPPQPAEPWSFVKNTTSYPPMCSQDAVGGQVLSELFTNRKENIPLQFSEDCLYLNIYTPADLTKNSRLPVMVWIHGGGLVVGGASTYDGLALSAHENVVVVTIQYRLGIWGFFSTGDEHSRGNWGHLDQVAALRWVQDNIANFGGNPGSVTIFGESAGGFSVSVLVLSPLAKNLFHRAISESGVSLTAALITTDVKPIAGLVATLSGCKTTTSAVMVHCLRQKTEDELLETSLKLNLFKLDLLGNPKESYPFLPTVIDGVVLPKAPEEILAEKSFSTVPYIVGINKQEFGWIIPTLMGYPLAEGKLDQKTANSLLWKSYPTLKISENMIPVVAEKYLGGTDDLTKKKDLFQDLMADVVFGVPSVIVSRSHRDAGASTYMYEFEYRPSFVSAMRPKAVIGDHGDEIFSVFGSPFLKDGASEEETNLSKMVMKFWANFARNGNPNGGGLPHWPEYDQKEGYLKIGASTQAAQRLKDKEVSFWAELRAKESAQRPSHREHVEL

[4] = biological target: T3, FAAH (UniProt O08914); test: Proteome-wide serine hydrolase selectivity screening, FAAH; type: biochemical, human
T3 sequence (O08914 1-579): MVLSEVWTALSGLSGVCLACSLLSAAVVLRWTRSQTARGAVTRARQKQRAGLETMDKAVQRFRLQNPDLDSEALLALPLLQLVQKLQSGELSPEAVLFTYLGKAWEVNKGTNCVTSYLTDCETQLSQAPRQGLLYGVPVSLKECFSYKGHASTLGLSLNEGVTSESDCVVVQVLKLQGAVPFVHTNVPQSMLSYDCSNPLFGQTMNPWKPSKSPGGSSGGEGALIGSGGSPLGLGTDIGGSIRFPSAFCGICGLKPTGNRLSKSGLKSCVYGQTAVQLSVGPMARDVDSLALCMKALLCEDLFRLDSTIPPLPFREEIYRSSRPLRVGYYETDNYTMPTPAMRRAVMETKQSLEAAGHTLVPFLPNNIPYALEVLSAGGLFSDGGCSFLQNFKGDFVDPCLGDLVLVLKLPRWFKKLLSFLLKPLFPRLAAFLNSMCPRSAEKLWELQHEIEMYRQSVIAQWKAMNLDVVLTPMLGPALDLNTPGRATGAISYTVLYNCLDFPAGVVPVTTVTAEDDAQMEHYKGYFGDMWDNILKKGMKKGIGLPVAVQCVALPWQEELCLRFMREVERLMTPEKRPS

[5] = biological target: T4, membrane-associated hydrolase (KIAA1363) (UniProt Q8BLF1); test: Proteome-wide serine hydrolase selectivity screening, KIAA1363; type: biochemical; conditions: selectivity screening
T4 sequence (Q8BLF1 1-408): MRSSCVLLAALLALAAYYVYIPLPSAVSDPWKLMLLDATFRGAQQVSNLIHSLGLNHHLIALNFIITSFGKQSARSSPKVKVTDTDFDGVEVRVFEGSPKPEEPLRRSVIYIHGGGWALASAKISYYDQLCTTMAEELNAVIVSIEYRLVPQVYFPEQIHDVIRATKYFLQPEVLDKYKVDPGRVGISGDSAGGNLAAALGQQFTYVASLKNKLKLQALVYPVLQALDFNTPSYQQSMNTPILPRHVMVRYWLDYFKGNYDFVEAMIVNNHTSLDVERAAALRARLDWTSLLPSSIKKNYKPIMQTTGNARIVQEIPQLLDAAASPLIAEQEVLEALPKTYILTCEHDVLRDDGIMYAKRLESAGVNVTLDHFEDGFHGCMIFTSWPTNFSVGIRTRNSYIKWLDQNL

[6] = system: membrane-associated hydrolase (KIAA1363); test: as above; type: biochemical; conditions: value in parentheses; FAAH versus KIAA1363

Ki ([1]; Table 1, purified recombinant rFAAH, pH 9.0, read-out: Rat FAAH inhibition Ki): 1.6 nM
Ki ([1]; Table 2, read-out: FAAH Ki): 1.7 nM
Ki ([1]; Table 4, value ± error, read-out: Ki, inhibition results with calculated errors): 1.6 ± 0.01 nM
TGH (selectivity) [2]: (5)
IC50 [3]: 700 nM
IC50 [4]: 140 nM
IC50 [5]: > 100000 nM
KIAA1363 (selectivity) [6]: (>700)
SMILES: O=C(CCCCCCc1ccccc1)c1nc(-c2ccncc2)co1 [Compound 4m, 7-phenyl-1-(4-(pyridin-4-yl)oxazol-2-yl)heptan-1-one]
